Results on three molecules are retold here after patent US5272155A, “(+)-2-methylpiperidine as modulator of cholinergic systems” (Abbott Laboratories, priority 1991, dated 1993).

Series [1] relates to nicotinic receptor. Briefly: Resting cortical cerebral blood flow (CBF) in rats, iv administration. The series is classed as in vivo, rat. The settings on record: for Resting Cortical CBF, % of Resting CONTROL: mean (SEM), (+) N = 5 rats, (-) N = 3 rats; for effect on resting CBF: 0.1-3.0 mg/kg, result in words. The procedure: (§1) Methods for surgical preparations of rats for electrical stimulation of brain and measurement of cortical CBF are detailed by Linville and Arneric (1991).
(§2) Intravenous (iv) administration of (+) 2-methylpiperidine ((+)2-MP) and (-)2-MP (0.1-3.0 mg/kg) were examined for their effect on mean arterial pressure (MAP), resting CBF and increases in cortical CBF elicited by electrically stimulating the BF (.perspectiveto.25 Hz; 100 uA; 10 sec. train).

Series [2] concerns rat brain receptor sites. The following applies: cited from earlier work.
A short description of series [3]: Hypothermia: rectal temperature of mice. It counts as in vivo, mouse. The following applies: i.p.; for Rectal temperature 15 min. later: saline 38.3 ± 0.1, mean ± S.E.M. As for the experimental part:
Adult male CD1 mice (n=5-7/group) were injected with (+)2-methylpiperidine (0, 10 or 100 mg/kg, i.p.) and rectal temperatures were assessed (YSI Model 43 TA) 15 min. later.

The test system of series [4] is male CD1 mice. Kind of series: Acute lethality in mice within 24 hours. The series is classed as in vivo, mouse. The settings on record: i.p.; for Deaths in 24 hours: mandelic acid salt, deaths/animals; for tolerability: 30 and 100 mg/kg. The text has this: Compounds were given as the respective mandelic acid salts.
The nature of series [5]: Mean arterial pressure (MAP) in rats, iv administration. The series is classed as in vivo, rat. The settings on record: for Mean Arterial Pressure (MAP): mean (SEM), (+) N = 5 rats, (-) N = 3 rats; for effect on mean arterial pressure / blood pressure: 0.1-3.0 mg/kg, result in words. The procedure: as §1, §2
Series [6] concerns mouse. Kind of series: (-)Nicotine induced mouse lethality after pretreatment. The series is classed as in vivo.
Series [7] deals with CD1 mice. Kind of series: Mouse elevated-plus maze (conflict test, anxiolytic activity). It counts as in vivo. The settings on record: (+)2-methylpiperidine 0.1 mg/kg, IP, 5 min prior to (-)nicotine (FIG. 1B); n=8. As for the experimental part:
FIG. 1A is a graph of time mice spend in the open arms of the elevated-plusmaze (a conflict test that probes anxiolytic activity) as a function of the dose of (-)nicotine administered to the mice.
FIG. 1B is a graph of time mice spend in the open arms of the elevated-plusmaze as a function of the administration of (+)2-methylpiperidine (0.1 mg/kg) or (-)nicotine administered separately or in combination.
The mouse elevated-plus maze is a conflict test that probes anxiolytic activity (Lister, Pyschopharmacology, 1987, 92:180). It is based on the fact that exposure of mice to an elevated open arm leads to an avoidance response considerably stronger than that evoked by exposure to an enclosed arm.
The apparatus required to perform this test is made of plexiglass and consists of two open arms (17×8 cm) and two enclosed arms (17×8×15 cm) extending from a central platform (8×8 cm). It is mounted on an opaque plexiglass base rising 39 cm above the floor. Mice are released on one of the open arms and the time spent in the open and enclosed arms is recorded during a 5 min. test period.
CD1 mice (n=8 per group) received systemic (-)nicotine injections (0, 0.03, 0.1 or 0.3 mg/kg, IP) fifteen minutes before they were allowed to explore the plus-maze for a 5 minute test period.

For series [8], the system named is Adult male CD1 mice. Briefly: Habituation / locomotor activity in automated activity monitors. The settings on record: for locomotor activity, first 10 min after introduction to the novel environment: Saline=3680±169. The series is classed as in vivo, mouse. As for the experimental part: Adult male CD1 mice (n=8/group) were injected with (+)2-methylpiperidine (0, 1.0, 3.0 or 10.0 mg/kg, i.p.) immediately prior or 60 min. prior to placement in automated activity monitors (Omnitech, Columbus, Ohio). These enclosures, measuring 40×40×42 cm, are equipped with a series of photocells and generate measurements of a variety of locomotor activities.

In series [9] the test system is nicotinic receptor. Briefly: Cortical CBF response elicited by electrical stimulation of the basal forebrain (BF) in rats. The series is classed as in vivo, rat. The following applies: iv; for BF-Elicited CBF Response, % of Resting Cortical CBF: mean (SEM), (+) N = 5 rats, (-) N = 3 rats; for effect on BF-elicited CBF response: 0.1-3.0 mg/kg, result in words. As for the experimental part:
as §1, §2

A short description of series [10]: Combined effects of (-)nicotine and (+)2-methylpiperidine on rectal temperatures of mice. The following applies: for Rectal temperature: mean ± S.E.M. The series is classed as in vivo, mouse.
The mark [11] stands for this setting: 0.1 mg/kg, dose 0: (+) 100 (10), (-) 100 (13).
Where [12] appears, read: 0.1 mg/kg, dose 0: (+) 76 (3), (-) 90 (6).
Setting [13] is: pretreatment 10.0 mg/kg, (-)nicotine 3 mg/kg.
[14] abbreviates: pretreatment 10.0 mg/kg, (-)nicotine 6 mg/kg.
The mark [15] stands for this setting: pretreatment 10.0 mg/kg, (-)nicotine 9 mg/kg.
[16] abbreviates: 0.1 mg/kg, dose 0: (+) 153 (11), (-) 130 (8).

Entries after “also recorded” stand apart in the source; their conditions may differ. Where two headings read alike, the source gives them in different places.

Take `CC1CCCCN1` (racemic) [(+)2-methylpiperidine, (+)-2-methylpiperidine]: the “Resting Cortical CBF, % of Resting CONTROL” value in [1] (setting [11]) is reported as 126 (15) %; in series [1] (0.3 mg/kg), 133 (22) %; in series [1] (1.0 mg/kg) it was 146 (28) %; in series [1] (3.0 mg/kg), 140 (27) %. Further, the entries for the “effect on resting CBF” value in [1] (listed as (+)2-MP) and in series [1] (listed as (+)-2MP) were “effective in enhancing resting CBF” and “enhanced”, respectively. In addition, the “enhancement of the binding of nicotine / nicotinic ligands” value in [2] (Sloan et al. 1985, listed as (+)isomer of (±)2-methylpiperidine) is listed as “enhances the binding of nicotinic ligands to rat brain receptor sites”. Moreover, the “Rectal temperature 15 min. later” value in series [3] (10 mg/kg, baseline 38.2 ± 0.1) is 38.2 ± 0.1 °C; in series [3] (100 mg/kg, baseline 38.3 ± 0.1), 38.2 ± 0.2 °C. The “effect on rectal temperature” value in series [3] (10 or 100 mg/kg, 15 min, as well as 60 and 120 min later) was “without effect”. Also, the “Deaths in 24 hours” value in [4] (30 mg/kg) and in series [4] (100 mg/kg) was 0/5 each time. Also, in series [4], the tolerability result was “well tolerated by male CD1 mice, and did not cause any deaths within 24 hours”. In addition, the “Mean Arterial Pressure (MAP)” value in series [5] (setting [12]) is recorded as 82 (6) mmHg; in series [5] (0.3 mg/kg), 87 (5) mmHg; in series [5] (1.0 mg/kg) it was 92 (7) mmHg; in series [5] (3.0 mg/kg), 87 (7) mmHg. In addition, the “effect on mean arterial pressure / blood pressure” value was “no overt on blood pressure” in series [5] and “No remarkable effects” in series [5] (listed as (+)2-MP). Also, the “effect on the lethality elicited by (-)nicotine” value in [6] (i.p. (-)nicotine, result in words) is “did not potentiate the lethality; also recorded: does not potentiate (-)nicotine induced acute lethality”. Also, the DEATHS/24 hours in [6] (pretreatment 0.1 mg/kg, (-)nicotine 3 mg/kg) is reported as 0/6; in [6] (pretreatment 0.1 mg/kg, (-)nicotine 6 mg/kg), 1/6; in series [6] (pretreatment 0.1 mg/kg, (-)nicotine 9 mg/kg), 2/6; in [6] (setting [13]) it was 0/6; in series [6] (setting [14]), 1/8; in [6] (setting [15]), 3/6. Moreover, in series [7], the “anxiolytic activity in combination with a non-effective dose of (-)nicotine” value is given as “able to enhance the anxiolytic activity of a non-effective dose of (-)nicotine”. For the same molecule, the “locomotor activity, first 10 min after introduction to the novel environment” value worked out at 3402±164 activity counts in series [8] (3.0 mg/kg, i.p., 60 min prior) and 3349±126 activity counts in series [8] (10 mg/kg, i.p., 60 min prior). Besides, the “effect on the habituation process” value in series [8] (1.0, 3.0 or 10.0 mg/kg, i.p., drug-by-time interaction p<0.02) is given as “dose-related enhancement of the habituation process”. The “effect on locomotor activity (impairment or sedation)” value in series [8] (3.0 or 10.0 mg/kg, 60 min prior, first 10 min) was “did not significantly decrease the high level of locomotor activity”. Moreover, the “BF-Elicited CBF Response, % of Resting Cortical CBF” value is listed as 203 (21) % in series [9] (setting [16]), 222 (20) % in [9] (0.3 mg/kg), 222 (23) % in series [9] (1.0 mg/kg) and 220 (19) % in series [9] (3.0 mg/kg). The “effect on BF-elicited CBF response” value in [9] (listed as (+)2-MP) is “effective in enhancing resting CBF and the BF-elicited CBF response”; in series [9] (listed as (+)-2MP) it was “enhanced”. The Rectal temperature in series [10] ((+)2-MP 0.1 mg/kg (so in the source) pretreatment, then (-)nicotine 1.0 mg/kg, * p<0.05) was 36.0 ± 0.7 °C; in series [10] ((+)2-MP 1.0 mg/kg pretreatment, then (-)nicotine 0.3 mg/kg), 37.8 ± 0.2 °C; in [10] ((+)2-MP 10.0 mg/kg pretreatment, then (-)nicotine 0.3 mg/kg) it was 37.5 ± 0.3 °C; in series [10] ((+)2-MP 10.0 mg/kg pretreatment, then (-)nicotine 1.0 mg/kg, * p<0.05), 36.5 ± 0.5 °C. Moreover, the “effect on the hypothermic response to (-)nicotine” value in series [10] ((+)2-methylpiperidine 1 and 10 mg/kg, i.p., 3 min. prior to (-)nicotine) is “did not potentiate the hypothermic response to (-)nicotine; also recorded: the hypothermic response of the low dose of (-)nicotine (0.3 mg/kg) was actually attenuated; also recorded: the higher dose of (-)nicotine was unaffected”.

As to `CC1CCCCN1` (racemic) [(±)-2-methylpiperidine, reference compound], the “enhancement of the binding of nicotine / nicotinic ligands” value in series [2] (Sloan et al. 1985) was “high degree of specificity in enhancing the binding of nicotine in the rat brain”.

On to `CC1CCCCN1` (single isomer, unassigned; (-)) [(-)2-methylpiperidine, reference compound], for which the “Resting Cortical CBF, % of Resting CONTROL” value in series [1] (setting [11]) is given as 99 (32) %; in [1] (0.3 mg/kg), 86 (29) %; in series [1] (1.0 mg/kg) it was 74 (27) %; in series [1] (3.0 mg/kg), 70 (30) %. The “effect on resting CBF” value in [1] is “no ability to enhance”. Besides, the “Deaths in 24 hours” value in series [4] (30 mg/kg) and in [4] (100 mg/kg) was 0/5 each time. In addition, the tolerability entry in series [4] was “well tolerated by male CD1 mice, and did not cause any deaths within 24 hours”. The “Mean Arterial Pressure (MAP)” value is given as 78 (4) mmHg in series [5] (setting [12]), 83 (4) mmHg in series [5] (0.3 mg/kg), 80 (8) mmHg in series [5] (1.0 mg/kg) and 73 (4) mmHg in [5] (3.0 mg/kg). The DEATHS/24 hours is recorded as 0/6 in series [6] (setting [13]), 0/6 in series [6] (setting [14]) and 4/6 in [6] (setting [15]). The “BF-Elicited CBF Response, % of Resting Cortical CBF” value is 113 (30) % in [9] (setting [16]), 101 (28) % in [9] (0.3 mg/kg), 88 (26) % in [9] (1.0 mg/kg) and 81 (30) % in [9] (3.0 mg/kg). Also, the “effect on BF-elicited CBF response” value in [9] is “no ability to enhance”.
